The test system of experiment [1] is Escherichia coli TK-3. As to the kind of experiment: Growth-inhibition test on clinically isolated strain (agar, about 10^8 cells/ml). In kind it is cell-based. Also on record: key: (+) means that the test bacterium grew; (-) means that the test bacterium did not grow. Conditions: T-1551 Na 0 μg/ml; Methicillin sodium alone by line b32-b40: 3200,1600,800,400,200,100,50,25,12.5 μg/ml; 18 hours, 37° C. The protocol: (§1) Heart Infusion agar containing a prescribed amount of Methicillin sodium or T-1551 Na was inoculated with the test bacterium at a rate of about 10^8 cells/ml. After incubation for 18 hours at 37° C., the growth of the test bacterium was inspected.

Experiment [2] has as its system Pseudomonas aeruginosa S-111. The description is as above. Also on record: key: (+) means that the test bacterium grew; (-) means that the test bacterium did not grow. Conditions: T-1551 Na 0 μg/ml; Methicillin sodium alone by line b92-b100: 3200,1600,800,400,200,100,50,25,12.5 μg/ml; 18 hours, 37° C. In kind it is cell-based. The protocol: as §1
Experiment [3] deals with Klebsiella pneumoniae Y-4. Described as above. In kind it is cell-based. Also on record: key: (+) means that the test bacterium grew; (-) means that the test bacterium did not grow. Conditions: T-1551 Na 0 μg/ml; Methicillin sodium alone by line b62-b70: 3200,1600,800,400,200,100,50,25,12.5 μg/ml; 18 hours, 37° C. The protocol:
as §1

Experiment [4] has as its system K. pneumoniae Y-4. As to the kind of experiment: Effect of combined use on experimental infection in mice (protection). In kind it is in vivo, mice (ICR strain) infected with K. pneumoniae. Conditions: challenge dose 5.7 × 10^7 cells/mouse, peritoneal; subcutaneous administration one and two hours after inoculation. The text has this:
(§2) Male mice (5 mice per group) of the ICR strain, 4 weeks of age, were peritoneally inoculated with the prescribed number of pathogenic bacteria suspended in 5% mucin. After one hour and two hours following the inoculation, test preparations shown in Table 5 were subcuataneously administered to examine the protection effect.

Experiment [5] deals with K. pneumoniae Y-53. Described as above. In kind it is in vivo, mice (ICR strain) infected with K. pneumoniae. Conditions: challenge dose 1.0 × 10^7 cells/mouse, peritoneal; subcutaneous administration one and two hours after inoculation.
Text: as §2

The subject of experiment [6] is Escherichia coli TK-3. The experiment in a line: Minimum inhibitory concentration. In kind it is cell-based. Conditions: TK3; Escherichia coli TK-3 strain. The protocol:
(§3) The minimum inhibitory concentration of T-1551 Na or Methicillin sodium against Escherichia coli TK-3 strain or Kleosiella pneumoniae Y-4 strain was greater than 800 μg/ml in each case.

Experiment [7] deals with Klebsiella pneumoniae Y-4. As to the kind of experiment: Minimum inhibitory concentration. In kind it is cell-based. Conditions: Y4; Klebsiella pneumoniae Y-4 strain. The protocol: as §3
Experiment [8] deals with Escherichia coli GN 6299. The experiment in a line: Growth-inhibition test with potassium clavulanate. In kind it is cell-based. Details: key: (+) means that the test bacterium grew; (-) means that the test bacterium did not grow. Conditions: T-1551 Na 0 μg/ml; potassium clavulanate alone by line b171,b173-b181: 100,(unlabelled),25,(unlabelled),6.25,(unlabelled),1.6,(unlabelled),0.4,(unlabelled) μg/ml. The protocol: as §1
(§4) The same operation as in Test Example 1 was repeated, except that the Methicillin sodium was replaced by potassium clavulanate and the test bacteria were replaced by those shown in Tables 6, 7 and 8, to obtain the results shown in Tables 6, 7 and 8.

Experiment [9] has as its system Klebsiella pneumoniae GN 69. The experiment in a line: Growth-inhibition test with potassium clavulanate. In kind it is cell-based. Conditions: T-1551 Na 0 μg/ml; potassium clavulanate alone by line b195,b197-b205: 100,(unlabelled),25,(unlabelled),6.25,(unlabelled),1.6,(unlabelled),0.4,(unlabelled) μg/ml. Details: key: (+) means that the test bacterium grew; (-) means that the test bacterium did not grow. The protocol: as §1, §4

In experiment [10] the test system is Pseudomonas aeruginosa GN 3345. The experiment in a line: Growth-inhibition test with potassium clavulanate. In kind it is cell-based. Also on record: key: (+) means that the test bacterium grew; (-) means that the test bacterium did not grow. Conditions: T-1551 Na 0 μg/ml; potassium clavulanate alone by line b219-b228: 100,(unlabelled),25,(unlabelled),12.5,(unlabelled),3.1,(unlabelled),0.4,(unlabelled) μg/ml. The protocol: as §1, §4

Here are results for two molecules from patent US4428936A, “Antibacterial composition for medical use” (Toyama Chemical Co., Ltd., priority 1978, dated 1984).

A value given as a limit tells only on which side of the number the result lay.

The MIC is the least concentration at which growth counts as inhibited. Regarding `COc1cccc(OC)c1C(=O)N[C@@H]1C(=O)N2[C@@H]1SC(C)(C)[C@@H]2C(=O)O` [Methicillin sodium, reference compound], the “growth of the test bacterium” value in [1], in experiment [2] and in experiment [3] was “+” each time. The “ED50 (protection effect)” value in experiment [4] is given as greater than 50 mg/mouse; in [5] it was greater than 46.6 mg/mouse. Besides, the MIC in [6] and in experiment [7] was greater than 800 µg/mL throughout.

For `O=C(O)[C@H]1/C(=C/CO)O[C@@H]2CC(=O)N21` [Potassium clavulanate, potassium clavulanate, reference compound], the “growth of the test bacterium” value is “- and +” in experiment [8]; “- and +” in [9]; “+” in experiment [10].
